Laboratory results published in PubChem BioAssay (NCI).
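Results reflect a 48-hour exposure of cells in 96-well plates to compound at five concentrations. GI50: concentration for 50% inhibition of growth. TGI: total growth inhibition.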

Experiments:
Experiment in all cases: NCI-60 cell line screen, 48 h
786-0 renal = system: 786-0 renal
A498 renal = system: A498 renal
A549 NSCLC = system: A549 NSCLC
ACHN renal = system: ACHN renal
BT-549 breast = system: BT-549 breast
CAKI-1 renal = system: CAKI-1 renal
CCRF-CEM leukemia = system: CCRF-CEM leukemia
COLO 205 colon = system: COLO 205 colon
DU-145 prostate = system: DU-145 prostate
EKVX NSCLC = system: EKVX NSCLC
HCC-2998 colon = system: HCC-2998 colon
HCT-116 colon = system: HCT-116 colon
HOP-62 NSCLC = system: HOP-62 NSCLC
HOP-92 NSCLC = system: HOP-92 NSCLC
HS 578T breast = system: HS 578T breast
K-562 leukemia = system: K-562 leukemia
KM12 colon = system: KM12 colon
LOX IMVI melanoma = system: LOX IMVI melanoma
MCF7 breast = system: MCF7 breast
MDA-MB-231 breast = system: MDA-MB-231 breast
NCI-H226 lung = system: NCI-H226 lung
NCI-H23 lung = system: NCI-H23 lung
NCI-H460 lung = system: NCI-H460 lung
NCI-H522 lung = system: NCI-H522 lung
NCI/ADR-RES ovarian = system: NCI/ADR-RES ovarian
OVCAR-3 ovarian = system: OVCAR-3 ovarian
OVCAR-4 ovarian = system: OVCAR-4 ovarian
OVCAR-5 ovarian = system: OVCAR-5 ovarian
OVCAR-8 ovarian = system: OVCAR-8 ovarian
PC-3 prostate = system: PC-3 prostate
RPMI-8226 leukemia = system: RPMI-8226 leukemia
RXF 393 renal = system: RXF 393 renal
SF-295 CNS = system: SF-295 CNS
SF-539 CNS = system: SF-539 CNS
SK-MEL-2 melanoma = system: SK-MEL-2 melanoma
SK-MEL-28 melanoma = system: SK-MEL-28 melanoma
SK-MEL-5 melanoma = system: SK-MEL-5 melanoma
SK-OV-3 ovarian = system: SK-OV-3 ovarian
SN12C renal = system: SN12C renal
SNB-19 CNS = system: SNB-19 CNS
SNB-75 CNS = system: SNB-75 CNS
SR leukemia = system: SR leukemia
T-47D breast = system: T-47D breast
TK-10 renal = system: TK-10 renal
U251 CNS = system: U251 CNS
UACC-257 melanoma = system: UACC-257 melanoma
UACC-62 melanoma = system: UACC-62 melanoma
UO-31 renal = system: UO-31 renal
HCT-15 colon = system: HCT-15 colon
HL-60(TB) leukemia = system: HL-60(TB) leukemia
HT29 colon = system: HT29 colon
IGROV1 ovarian = system: IGROV1 ovarian
M14 melanoma = system: M14 melanoma
MALME-3M melanoma = system: MALME-3M melanoma
MOLT-4 leukemia = system: MOLT-4 leukemia
SF-268 CNS = system: SF-268 CNS
SW-620 colon = system: SW-620 colon

SMILES: COC1=CC(c2ccc[nH]2)=N/C1=C\c1[nH]c(C)c(C(=O)Oc2ccccc2)c1C
- GI50 (786-0 renal): 313 nM
- TGI (786-0 renal): 1640 nM
- GI50 (A498 renal): 648 nM
- TGI (A498 renal): 2560 nM
- GI50 (A549 NSCLC): 344 nM
- TGI (A549 NSCLC): 2010 nM
- GI50 (ACHN renal): 230 nM
- TGI (ACHN renal): 1170 nM
- GI50 (BT-549 breast): 384 nM
- TGI (BT-549 breast): 4200 nM
- GI50 (CAKI-1 renal): 67.9 nM
- GI50 (CCRF-CEM leukemia): 62.5 nM
- TGI (CCRF-CEM leukemia): > 100000 nM
- GI50 (COLO 205 colon): 345 nM
- TGI (COLO 205 colon): 1430 nM
- GI50 (DU-145 prostate): 295 nM
- TGI (DU-145 prostate): > 100000 nM
- GI50 (EKVX NSCLC): 164 nM
- TGI (EKVX NSCLC): 2970 nM
- GI50 (HCC-2998 colon): 243 nM
- TGI (HCC-2998 colon): 1420 nM
- GI50 (HCT-116 colon): 42.7 nM
- TGI (HCT-116 colon): 1170 nM
- GI50 (HOP-62 NSCLC): 710 nM
- TGI (HOP-62 NSCLC): 3860 nM
- GI50 (HOP-92 NSCLC): 189 nM
- TGI (HOP-92 NSCLC): 564 nM
- GI50 (HS 578T breast): 205 nM
- TGI (HS 578T breast): 828 nM
- GI50 (K-562 leukemia): 292 nM
- TGI (K-562 leukemia): > 100000 nM
- GI50 (KM12 colon): 118 nM
- TGI (KM12 colon): 1690 nM
- GI50 (LOX IMVI melanoma): 19.7 nM
- TGI (LOX IMVI melanoma): 47.2 nM
- GI50 (MCF7 breast): 272 nM
- TGI (MCF7 breast): 1490 nM
- GI50 (MDA-MB-231 breast): 79.5 nM
- TGI (MDA-MB-231 breast): 457 nM
- GI50 (NCI-H226 lung): 438 nM
- TGI (NCI-H226 lung): 1960 nM
- GI50 (NCI-H23 lung): 227 nM
- TGI (NCI-H23 lung): 1950 nM
- GI50 (NCI-H460 lung): 77 nM
- TGI (NCI-H460 lung): 1400 nM
- GI50 (NCI-H522 lung): 227 nM
- TGI (NCI-H522 lung): 979 nM
- GI50 (NCI/ADR-RES ovarian): 185 nM
- TGI (NCI/ADR-RES ovarian): 1460 nM
- GI50 (OVCAR-3 ovarian): 212 nM
- TGI (OVCAR-3 ovarian): 1180 nM
- GI50 (OVCAR-4 ovarian): 236 nM
- GI50 (OVCAR-5 ovarian): 389 nM
- TGI (OVCAR-5 ovarian): 1990 nM
- GI50 (OVCAR-8 ovarian): 288 nM
- TGI (OVCAR-8 ovarian): 1450 nM
- GI50 (PC-3 prostate): 117 nM
- TGI (PC-3 prostate): > 100000 nM
- GI50 (RPMI-8226 leukemia): 284 nM
- TGI (RPMI-8226 leukemia): 2020 nM
- GI50 (RXF 393 renal): 267 nM
- TGI (RXF 393 renal): 1780 nM
- GI50 (SF-295 CNS): 329 nM
- TGI (SF-295 CNS): 1950 nM
- GI50 (SF-539 CNS): 360 nM
- TGI (SF-539 CNS): 1630 nM
- GI50 (SK-MEL-2 melanoma): 194 nM
- TGI (SK-MEL-2 melanoma): 479 nM
- GI50 (SK-MEL-28 melanoma): 595 nM
- TGI (SK-MEL-28 melanoma): 1990 nM
- GI50 (SK-MEL-5 melanoma): 92.9 nM
- TGI (SK-MEL-5 melanoma): 269 nM
- GI50 (SK-OV-3 ovarian): 1680 nM
- TGI (SK-OV-3 ovarian): 7350 nM
- GI50 (SN12C renal): 387 nM
- TGI (SN12C renal): 2410 nM
- GI50 (SNB-19 CNS): 1290 nM
- TGI (SNB-19 CNS): > 100000 nM
- GI50 (SNB-75 CNS): 274 nM
- GI50 (SR leukemia): 200 nM
- TGI (SR leukemia): 1110 nM
- GI50 (T-47D breast): 403 nM
- TGI (T-47D breast): 1800 nM
- GI50 (TK-10 renal): 336 nM
- TGI (TK-10 renal): 2550 nM
- GI50 (U251 CNS): 148 nM
- TGI (U251 CNS): 1600 nM
- GI50 (UACC-257 melanoma): 545 nM
- TGI (UACC-257 melanoma): 2410 nM
- GI50 (UACC-62 melanoma): 198 nM
- TGI (UACC-62 melanoma): 427 nM
- GI50 (UO-31 renal): 150 nM
- TGI (UO-31 renal): 350 nM

SMILES: Cc1cn(CC2=NC3CCCCC3N2)c(=O)[nH]c1=O (stereo not given)
- TGI (786-0 renal): > 100000 nM
- TGI (A498 renal): > 100000 nM
- TGI (A549 NSCLC): > 100000 nM
- TGI (ACHN renal): > 100000 nM
- TGI (BT-549 breast): > 100000 nM
- TGI (CCRF-CEM leukemia): > 100000 nM
- TGI (COLO 205 colon): > 100000 nM
- TGI (DU-145 prostate): > 100000 nM
- TGI (EKVX NSCLC): > 100000 nM
- TGI (HCC-2998 colon): > 100000 nM
- TGI (HCT-116 colon): > 100000 nM
- TGI (HCT-15 colon): > 100000 nM
- TGI (HL-60(TB) leukemia): > 100000 nM
- TGI (HOP-62 NSCLC): > 100000 nM
- TGI (HOP-92 NSCLC): > 100000 nM
- TGI (HS 578T breast): > 100000 nM
- TGI (HT29 colon): > 100000 nM
- TGI (IGROV1 ovarian): > 100000 nM
- TGI (K-562 leukemia): > 100000 nM
- TGI (LOX IMVI melanoma): > 100000 nM
- TGI (M14 melanoma): > 100000 nM
- TGI (MALME-3M melanoma): > 100000 nM
- TGI (MCF7 breast): > 100000 nM
- TGI (MDA-MB-231 breast): > 100000 nM
- TGI (MOLT-4 leukemia): > 100000 nM
- TGI (NCI-H226 lung): > 100000 nM
- TGI (NCI-H23 lung): > 100000 nM
- TGI (NCI-H460 lung): > 100000 nM
- TGI (NCI-H522 lung): > 100000 nM
- TGI (NCI/ADR-RES ovarian): > 100000 nM
- TGI (OVCAR-5 ovarian): > 100000 nM
- TGI (OVCAR-8 ovarian): > 100000 nM
- TGI (PC-3 prostate): > 100000 nM
- TGI (RPMI-8226 leukemia): > 100000 nM
- TGI (RXF 393 renal): > 100000 nM
- TGI (SF-268 CNS): > 100000 nM
- TGI (SF-295 CNS): > 100000 nM
- TGI (SK-MEL-2 melanoma): > 100000 nM
- TGI (SK-MEL-28 melanoma): > 100000 nM
- TGI (SK-MEL-5 melanoma): > 100000 nM
- TGI (SK-OV-3 ovarian): > 100000 nM
- TGI (SN12C renal): > 100000 nM
- TGI (SNB-19 CNS): > 100000 nM
- TGI (SNB-75 CNS): > 100000 nM
- TGI (SR leukemia): > 100000 nM
- TGI (SW-620 colon): > 100000 nM
- TGI (T-47D breast): > 100000 nM
- TGI (TK-10 renal): > 100000 nM
- TGI (U251 CNS): > 100000 nM
- TGI (UACC-257 melanoma): > 100000 nM
- TGI (UACC-62 melanoma): > 100000 nM
- TGI (UO-31 renal): > 100000 nM
